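Interpolation was linear, between the two tested concentrations surrounding the appropriate level; five concentrations were tested over 48 hours in 96-well plates. Abbreviation: GI50, concentration required for 50% inhibition of growth.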 The source made the active and inactive calls. Rule as the data show it: active = GI50 up to about 1.1 µM and inactive = higher.
Experiments:
Assay in all cases: NCI anticancer screen, dose series, 48 h
OVCAR-8 = tested on: OVCAR-8
ACHN = tested on: ACHN
K562 = tested on: K562
SK-MEL-5 = tested on: SK-MEL-5
TK-10 = tested on: TK-10
HCT-15 = tested on: HCT-15
NCI-H522 = tested on: NCI-H522
SK-OV-3 = tested on: SK-OV-3
MOLT-4 = tested on: MOLT-4
LOX IMVI = tested on: LOX IMVI
SN12C = tested on: SN12C
NCI-H23 = tested on: NCI-H23
SK-MEL-2 = tested on: SK-MEL-2
EKVX = tested on: EKVX
UACC-62 = tested on: UACC-62
OVCAR-4 = tested on: OVCAR-4
HOP-62 = tested on: HOP-62
OVCAR-5 = tested on: OVCAR-5
UACC-257 = tested on: UACC-257

c1ccc(-c2csc3ncn4cnnc4c23)cc1
GI50 (OVCAR-8): > 100 µM (inactive) | GI50 (ACHN): 33.6 µM (inactive) | GI50 (K562): > 100 µM (inactive) | GI50 (SK-MEL-5): 58.1 µM (inactive) | GI50 (TK-10): 84.3 µM (inactive) | GI50 (HCT-15): 95.3 µM | GI50 (NCI-H522): 51.1 µM (inactive) | GI50 (SK-OV-3): > 100 µM (inactive) | GI50 (MOLT-4): 44.1 µM (inactive) | GI50 (LOX IMVI): 55.8 µM (inactive) | GI50 (SN12C): 81.7 µM (inactive) | GI50 (NCI-H23): 90.2 µM (inactive) | GI50 (SK-MEL-2): 24.8 µM (inactive) | GI50 (EKVX): > 100 µM (inactive) | GI50 (UACC-62): 53.3 µM (inactive) | GI50 (OVCAR-4): 75.5 µM (inactive)

CCCCCCCCCC(=O)CC(=O)c1c(O)cccc1O
GI50 (OVCAR-8): 38 µM (inactive) | GI50 (ACHN): 27.4 µM (inactive) | GI50 (K562): 27.7 µM (inactive) | GI50 (HOP-62): 85.7 µM (inactive) | GI50 (OVCAR-5): 22.9 µM (inactive) | GI50 (TK-10): 41.8 µM (inactive) | GI50 (NCI-H522): 27.8 µM (inactive) | GI50 (SK-OV-3): 20.5 µM (inactive) | GI50 (MOLT-4): 31 µM (inactive) | GI50 (LOX IMVI): 21.3 µM (inactive) | GI50 (SN12C): 24.4 µM (inactive) | GI50 (NCI-H23): 30.5 µM (inactive) | GI50 (SK-MEL-2): 30.6 µM (inactive) | GI50 (EKVX): 29.2 µM (inactive) | GI50 (UACC-62): 33.4 µM (inactive) | GI50 (UACC-257): 38.2 µM (inactive) | GI50 (OVCAR-4): 49.7 µM (inactive)

COc1nc2c(nc(N)n2C2OC(CO)C(O)C(O)C2O)c(=O)n1C (centres undefined)
GI50 (OVCAR-8): > 100 µM (inactive) | GI50 (ACHN): > 100 µM (inactive) | GI50 (K562): > 100 µM (inactive) | GI50 (HOP-62): > 100 µM (inactive) | GI50 (SK-MEL-5): > 100 µM (inactive) | GI50 (TK-10): > 100 µM (inactive) | GI50 (NCI-H522): > 100 µM (inactive) | GI50 (SK-OV-3): > 100 µM (inactive) | GI50 (LOX IMVI): > 100 µM (inactive) | GI50 (SN12C): > 100 µM (inactive) | GI50 (NCI-H23): > 100 µM (inactive) | GI50 (EKVX): > 100 µM (inactive) | GI50 (UACC-62): > 100 µM (inactive) | GI50 (UACC-257): > 100 µM (inactive) | GI50 (OVCAR-4): > 100 µM (inactive)

Oc1c(-c2ccccc2)nc2ccccn12
GI50 (OVCAR-8): > 100 µM (inactive) | GI50 (ACHN): > 100 µM (inactive) | GI50 (K562): > 100 µM (inactive) | GI50 (HOP-62): > 100 µM (inactive) | GI50 (SK-MEL-5): > 100 µM (inactive) | GI50 (OVCAR-5): > 100 µM (inactive) | GI50 (TK-10): > 100 µM (inactive) | GI50 (NCI-H522): > 100 µM (inactive) | GI50 (SK-OV-3): > 100 µM (inactive) | GI50 (MOLT-4): > 100 µM (inactive) | GI50 (SN12C): > 100 µM (inactive) | GI50 (NCI-H23): > 100 µM (inactive) | GI50 (SK-MEL-2): > 100 µM (inactive) | GI50 (EKVX): > 100 µM (inactive) | GI50 (UACC-62): > 100 µM (inactive) | GI50 (UACC-257): > 100 µM (inactive) | GI50 (OVCAR-4): > 100 µM (inactive)

CNC(=S)/N=C(\N)N(C)C
GI50 (OVCAR-8): > 100 µM (inactive) | GI50 (ACHN): > 100 µM (inactive) | GI50 (K562): > 100 µM (inactive) | GI50 (HOP-62): > 100 µM (inactive) | GI50 (SK-MEL-5): > 100 µM (inactive) | GI50 (TK-10): > 100 µM (inactive) | GI50 (HCT-15): > 100 µM | GI50 (NCI-H522): > 100 µM (inactive) | GI50 (SK-OV-3): > 100 µM (inactive) | GI50 (MOLT-4): > 100 µM (inactive) | GI50 (LOX IMVI): > 100 µM (inactive) | GI50 (SN12C): > 100 µM (inactive) | GI50 (NCI-H23): > 10 µM (inactive) | GI50 (EKVX): > 100 µM (inactive) | GI50 (UACC-62): > 100 µM (inactive) | GI50 (UACC-257): > 10 µM (inactive) | GI50 (OVCAR-4): > 10 µM (inactive)

CCOc1ccc(/C=C2\NC(=S)N(/C=C3\C(=O)Oc4ccccc4C3=O)C2=O)cc1
GI50 (OVCAR-8): 19.4 µM (inactive) | GI50 (ACHN): 25.5 µM (inactive) | GI50 (HOP-62): 26.1 µM (inactive) | GI50 (SK-MEL-5): 19.7 µM (inactive) | GI50 (OVCAR-5): 40.2 µM (inactive) | GI50 (TK-10): 20.2 µM (inactive) | GI50 (HCT-15): 20.7 µM | GI50 (NCI-H522): 20.7 µM (inactive) | GI50 (SK-OV-3): 17.9 µM (inactive) | GI50 (MOLT-4): 24.3 µM (inactive) | GI50 (LOX IMVI): 28.9 µM (inactive) | GI50 (SN12C): 19.7 µM (inactive) | GI50 (NCI-H23): 30 µM (inactive) | GI50 (SK-MEL-2): 17.3 µM (inactive) | GI50 (EKVX): 24.7 µM (inactive) | GI50 (UACC-62): 17.5 µM (inactive) | GI50 (UACC-257): 26.6 µM (inactive) | GI50 (OVCAR-4): 28.1 µM (inactive)

CCOC(=O)NC(=O)c1cn(CCCCCCCCCCC(=O)NCCCN2CCN(CCCNC(=O)CCCCCCCCCCn3cc(C(=O)NC(=O)OCC)c(=O)[nH]c3=O)CC2)c(=O)[nH]c1=O
GI50 (OVCAR-8): > 100 µM (inactive) | GI50 (ACHN): > 100 µM (inactive) | GI50 (K562): > 100 µM (inactive) | GI50 (HOP-62): > 10 µM (inactive) | GI50 (OVCAR-5): > 100 µM (inactive) | GI50 (TK-10): > 100 µM (inactive) | GI50 (HCT-15): > 100 µM | GI50 (NCI-H522): > 10 µM (inactive) | GI50 (SK-OV-3): > 100 µM (inactive) | GI50 (MOLT-4): > 100 µM (inactive) | GI50 (LOX IMVI): > 100 µM (inactive) | GI50 (SN12C): > 100 µM (inactive) | GI50 (NCI-H23): > 100 µM (inactive) | GI50 (SK-MEL-2): > 100 µM (inactive) | GI50 (UACC-62): > 100 µM (inactive) | GI50 (UACC-257): > 100 µM (inactive)

CCCCc1c2c(nc3c1CCCC3O)CCCC2 (centres undefined)
GI50 (OVCAR-8): > 100 µM (inactive) | GI50 (ACHN): 80 µM (inactive) | GI50 (K562): 84.3 µM (inactive) | GI50 (HOP-62): > 100 µM (inactive) | GI50 (SK-MEL-5): > 100 µM (inactive) | GI50 (OVCAR-5): > 100 µM (inactive) | GI50 (TK-10): > 100 µM (inactive) | GI50 (HCT-15): > 100 µM | GI50 (NCI-H522): > 100 µM (inactive) | GI50 (SK-OV-3): > 100 µM (inactive) | GI50 (MOLT-4): 71 µM (inactive) | GI50 (SN12C): > 100 µM (inactive) | GI50 (NCI-H23): > 100 µM (inactive) | GI50 (SK-MEL-2): > 100 µM (inactive) | GI50 (EKVX): 73.6 µM (inactive) | GI50 (UACC-62): > 100 µM (inactive) | GI50 (UACC-257): > 100 µM (inactive) | GI50 (OVCAR-4): > 100 µM (inactive)
